What was measured:
Format in all cases: in vivo, human
[1] = tested on: PSA; assay: Phase I clinical study, clinical effectiveness (PSA response)
Excerpt: (§1) • Incidence, severity (graded according to CTCAE v5.0), and correlation with the study drug of adverse events (AEs) and serious adverse events (SAEs), also including abnormalities in vital signs, electrocardiogram, and laboratory tests; • PK parameters of the compound of formula I after single/multiple administrations, including but not limited to: • single administration parameters: peak plasma concentration (Cmax), time to peak (Tmax), area under the concentration-time curve from time zero to the last detectable concentration time point t (AUC0-t), area under the concentration-time curve from time zero to infinity (AUC0-inf) (if applicable), half-life (t1/2) (if applicable), apparent volume of distribution (Vz/F) (if applicable), and apparent clearance (CL/F) (if applicable); • multiple administration parameters: steady-state peak concentration (Cmax, ss), time to peak (Tmax, ss), steady-state trough concentration (Cmin, ss), area under the steady-state plasma concentration-time curve (AUCss), and drug accumulation ratio (Rac). • Pharmacokinetic (PK) of midazolam: pharmacokinetic parameters of midazolam in patients after administration of a microdose of midazolam before (D-1) and after (D15) multiple oral administrations of the compound of formula I, including: Tmax, Cmax, AUC0-t, AUCO-∞, t1/2, CL/F and Vz/F. • Efficacy endpoints: objective response rate (ORR), disease control rate (DCR), duration of response (DoR), radiographic progression-free survival (rPFS), PSA response rate at week 12, proportions of subjects with a decrease in PSA of ≧50% and ≧30% from baseline throughout study treatment, time to PSA progression, and overall survival (OS).
(§2) • Tablets were orally administered in preset dose group of 30 mg, 90 mg, 180 mg, 360 mg, 540 mg or 720 mg, with one treatment cycle every 28 days. Administration was continuous until disease progression or the occurrence of unacceptable toxicity. Tablets were orally administered once daily, within 30 minutes after breakfast each morning, for consecutive administration. If intensive PK blood sampling was scheduled on a given day, the subject was forbidden to drink water 1 h and fasted 4 h before and after drug administration.
A total of 17 subjects in the study received at least one post-baseline PSA test, with 1, 4, 9, and 3 subjects in 30 mg, 90 mg, 180 mg, and 360 mg dose groups, respectively. 8 of 17 subjects evaluable for PSA response experienced a PSA decrease.

[2] = Phase I clinical study, clinical pharmacology: food effect study (fasting vs postprandial pharmacokinetics)
Protocol: as §2
There were a total of 9 patients in the food effect study.

[3] = Phase I clinical study, clinical safety (DLT, TEAEs, treatment-related AEs)
Excerpt: • Incidence of dose limiting toxicity (DLT) • MTD (if available) and RP2D;
as §1, §2
A total of 26 tumour subjects were enrolled in this study, with 13 subjects in the dose escalation phase. There were 1, 4, 4, 3, and 1 subject(s) in 30 mg, 90 mg, 180 mg, 360 mg, and 540 mg dose groups, respectively. […] One subject was enrolled in the 540 mg dose group and remained in DLT observation, and no dose-limiting toxicity (DLT) was observed. There were 13 subjects in the dose expansion phase, and all were in the 180 mg dose group.

[4] = 180 mg oral administration under fasting conditions, patients with mCRPC
[5] = postprandial absorption compared with fasting state, food effect study

C[C@H]1CC2(CCN(c3ccc(C(=O)N4CCC(CN5CCN(c6cccc(N[C@H]7CCC(=O)NC7=O)c6)CC5)CC4)cc3F)CC2)CN1c1ccc(C#N)c(Cl)c1 [compound of formula I]
subjects who experienced a PSA decrease ([1]; 180 mg dose group, 6 of the 9 subjects): 66.7%
subjects achieving PSA30 (a reduction in serum PSA level of ≧ 30% from baseline during treatment) ([1]; 180 mg dose group, 9 subjects): 3 subjects
subjects achieving PSA90 (a reduction in serum PSA level of ≧ 90% from baseline during treatment) ([1]; 180 mg dose group, 9 subjects): 1 subject
subjects who experienced a PSA decrease ([1]; of 17 subjects evaluable for PSA response, 30 mg, 90 mg, 180 mg and 360 mg dose groups): 8 subjects
geometric mean (% geometric coefficient of variation) of apparent volume of distribution [2, 4]: 1260 (90.7) L
geometric mean (% geometric coefficient of variation) of clearance [2, 4]: 21.5 (83.4) L/h
median time to peak [2, 4]: 3 h
half-life ([2]; male, human, plasma, 180 mg oral administration under fasting conditions, patients with mCRPC, food effect study (9 patients), read-out: mean half-life (± standard deviation) (converted)): 40.8 ± 4.37 h
AUC, postprandial versus fasting state [2, 5]: 2.54 fold
Cmax, postprandial versus fasting state [2, 5]: 3.06 fold
time to peak delayed (postprandial versus fasting) ([2]; postprandial compared with fasting state): 3 h
time to peak, postprandial ([2]; postprandial state): about 6 h
subjects who experienced AEs associated with formula I ([3]; 8 of 26 subjects): 30.8%
subjects who experienced TEAEs ([3]; 9 of 26 tumour subjects enrolled): 34.6%
dose-limiting toxicity (DLT) ([3]; dose escalation phase, 13 subjects, 30 mg, 90 mg, 180 mg, 360 mg and 540 mg dose groups, oral once daily): no DLT was observed
grade 4/5 AE ([3]; during the study, 26 subjects): No grade 4/5 AE occurred
subjects who experienced grade 3 TRAE ([3]; one of 26 subjects, decreased neutrophil count and decreased white blood cell count): 3.8%
subjects who experienced grade 3 TEAEs ([3]; three of 26 subjects): 11.5%

— patent EP4740946A1, “METHOD FOR TREATING PROSTATE CANCER” (Jiangsu Hengrui Pharmaceuticals Co., Ltd., priority 2023, dated 2025)
